# Test system: STC-1 cells
# Assay: CCK release by STC-1 cells (competitive enzyme assay of the cell-conditioned medium)
# Format: cell-based, mouse
# Conditions: positive control, 100 nM PMA in 2 mg/ml BSA, 4 hour
# Method: The protein hydrolysates were added to the media of STC-1 cells at a protein concentration of approximately 2 mg/mL, and the enzyme controls were added at equivalent dilutions of the control reaction mixture (which included the enzyme(s) in the absence of protein substrate). Plotted is the % CCK released into the media of STC-1 cells stimulated by the different protein hydrolysates generated by the pepsin or pepsin and pancreatin enzymes, compared to the control 100 nM PMA (which was set as 100%). Cell culture media alone and 2 mg/mL bovine serum albumin (BSA) were used as negative background controls. The PMA control consisted of 100 nM PMA in cell culture media containing 2 mg/ml BSA. % CCK released into the cell culture media was calculated as follows: […]
# It is known that protein, in general, stimulates the release of CCK by enteroendocrine cells in the intestinal track of animals, including humans (Liddle, R. A., et al., (1986) Proteins But Not Amino Acids, Carbohydrates, or Fats Stimulate Cholecystokinin Secretion in the Rat. Am. J. Physiol. 251 (Gastrointest. Liver Physiol. 14): G243-G248). […] Degree of hydrolysis was determined by the reaction of primary amine groups with o-phthalaldehyde (OPA) vs. total amount of primary amine present in sample after acid hydrolysis (110° C. for 24 hours) (known as, the “OPA method”). […]
smiles,measurement,value
"CCCCCCCCCCCCCC(=O)O[C@@H]1[C@@H](C)[C@@]2(O)[C@@H](C=C(CO)C[C@]3(O)C(=O)C(C)=C[C@@H]23)[C@@H]2C(C)(C)[C@]12OC(C)=O [PMA, phorbol 12-myristate-13-acetate]",CCK Release (ng/ml) mean ± sem,0.171 ± 0.003 ng/mL

# From patent publication US20110257087A1, “Protein Hydrolysate Compositions Having Enhanced CCK Releasing Activity” (SOLAE, LLC, priority 2008, published 2011)
